# Assay results: PMC9774391 (ACS Omega, 2022)
# How the values were obtained:
# [1] = biological target: BChE (Homo sapiens, UniProt P06276); test: biochemical
# Procedure: (§1) According to the modified Ellman approach outlined in our team’s earlier work, the AChE and BChE inhibitory activities of the obtained compounds were evaluated.[18]−[21]
# [2] = biological target: AChE (Homo sapiens, UniProt P22303); test: biochemical
# Procedure: as §1
# [3] = biological target: T1, MAO-B (Homo sapiens, UniProt P27338); test: In vitro MAO-B inhibition assay (fluorometric); assay type: biochemical
# T1 sequence (P27338 1-520): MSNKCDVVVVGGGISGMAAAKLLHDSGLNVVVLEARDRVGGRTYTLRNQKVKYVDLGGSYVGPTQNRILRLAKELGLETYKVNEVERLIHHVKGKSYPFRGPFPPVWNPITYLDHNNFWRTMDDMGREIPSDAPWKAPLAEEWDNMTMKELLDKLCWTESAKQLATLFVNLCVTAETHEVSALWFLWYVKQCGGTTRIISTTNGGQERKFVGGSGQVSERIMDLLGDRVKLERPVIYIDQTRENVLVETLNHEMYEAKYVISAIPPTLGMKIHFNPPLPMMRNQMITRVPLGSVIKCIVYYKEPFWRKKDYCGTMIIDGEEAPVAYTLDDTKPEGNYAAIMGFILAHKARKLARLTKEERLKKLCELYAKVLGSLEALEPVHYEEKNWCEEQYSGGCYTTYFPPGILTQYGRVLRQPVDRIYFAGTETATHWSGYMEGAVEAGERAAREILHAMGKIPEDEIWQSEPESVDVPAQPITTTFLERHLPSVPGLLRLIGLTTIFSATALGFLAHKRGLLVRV
# [4] = biological target: T2, MAO-A (Homo sapiens, UniProt P21397); test: In vitro MAO-A inhibition assay (fluorometric); assay type: biochemical
# T2 sequence (P21397 1-527): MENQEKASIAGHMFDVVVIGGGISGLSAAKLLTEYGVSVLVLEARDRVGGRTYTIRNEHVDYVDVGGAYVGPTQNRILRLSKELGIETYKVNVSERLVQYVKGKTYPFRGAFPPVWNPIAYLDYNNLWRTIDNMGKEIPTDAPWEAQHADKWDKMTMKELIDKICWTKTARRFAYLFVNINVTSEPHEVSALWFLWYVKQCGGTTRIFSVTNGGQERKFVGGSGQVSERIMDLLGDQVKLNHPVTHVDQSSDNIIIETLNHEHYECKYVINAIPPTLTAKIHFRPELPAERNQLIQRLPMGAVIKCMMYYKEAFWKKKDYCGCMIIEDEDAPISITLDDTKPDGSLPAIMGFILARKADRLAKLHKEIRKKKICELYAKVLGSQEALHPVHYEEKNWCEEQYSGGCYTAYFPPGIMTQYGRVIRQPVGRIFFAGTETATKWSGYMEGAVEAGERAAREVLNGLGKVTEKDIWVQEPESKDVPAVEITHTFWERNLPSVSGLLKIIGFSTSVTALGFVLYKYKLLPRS
# [5] = system: NIH/3T3 mouse embryonic fibroblast cell line; test: Cytotoxicity test (MTT); assay type: cell-based; details: NIH/3T3 mouse fibroblast healthy cell line
# Procedure: (§2) The NIH/3T3 cells were incubated according to the manufacturer’s recommendations. In 96-well plates, NIH/3T3 cells were seeded at a density of 1 × 10^4 cells per well. The MTT test was conducted in line with the previously mentioned standards.[19],[22],[23],[28],[30]
# [6] = biological target: T3, Beta Amyloid 1–42 (Aβ42) (Homo sapiens, UniProt P05067); test: Beta Amyloid 1–42 (Aβ42) inhibitor screening assay; assay type: biochemical; details: 10^–4 M; read-out: % β-amyloid plaque inhibition
# T3 construct: The Beta Amyloid 1–42 (Aβ42) Ligand Screening Assay kit; purchased BioVision, Milpitas, CA
# T3 sequence (P05067 672-713 limits assumed): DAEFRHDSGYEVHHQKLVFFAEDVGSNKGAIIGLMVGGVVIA
# Text: The Beta Amyloid 1–42 (Aβ42) Ligand Screening Assay kit (BioVision, Milpitas, CA) technique based on the fluorometric approach served as the basis for the experimental process.[21],[28],[29]
# [7] = biological target: T1, MAO-B; test: Enzyme kinetics on MAO-B (Lineweaver–Burk); assay type: biochemical
# Procedure: The experimental procedures used in the kinetic investigations were identical to those used in the inhibition experiments. […]. Acetylthiocholine iodide (ATC) and butyrylthiocholine iodide (BTC) solutions were utilized as the substrates for the ChE enzymes, with serial dilutions at six different concentrations (600, 300, 150, 75, 37.5, and 18.75 μM). The tyramine substrate solution (concentrations ranging from 20 to 0.625 μM) was produced for the MAO enzymes at six different concentrations. Separate measurements were conducted both with and without an inhibitor. Using the Microsoft Office Excel 2013 program, the resulting absorbance values were compared to various substrate concentrations, and Lineweaver–Burk plots were created.[19]−[22]
# The absorbance data from the experiments and the substrate concentrations were used to generate Lineweaver–Burk plots. The graphic’s x-axis stands for 1/[S] […] […]. The intersection of these four lines on the diagram was used to define the type of substrate and inhibitor reaction against the enzyme.
# Reversible and irreversible inhibition of enzymes are the two categories that inhibition is commonly subdivided into. In irreversible inhibition, the inhibitor either creates a recalcitrant complex structure or establishes a covalent bond with the enzyme. […]
# [8] = DPPH free-radical scavenging activity assay; details: serial dilution 10^–3–10^–9 M; read-out: IC50 on DPPH antioxidant activity
# Procedure, shortened: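 Test solutions were mixed with an equal volume of DPPH solution (9.86 mg in 25 mL methanol), with methanol as blank and methanol plus DPPH as control. Absorbance was read at 517 nm after incubation.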
# [9] = Cytotoxicity test (MTT); assay type: cell-based; details: NIH/3T3 mouse embryonic fibroblast cells (ATCC CRL-1658), NIH/3T3 mouse fibroblast healthy cell line
# Procedure: as §2
# Sequence of BChE (P06276 29-602): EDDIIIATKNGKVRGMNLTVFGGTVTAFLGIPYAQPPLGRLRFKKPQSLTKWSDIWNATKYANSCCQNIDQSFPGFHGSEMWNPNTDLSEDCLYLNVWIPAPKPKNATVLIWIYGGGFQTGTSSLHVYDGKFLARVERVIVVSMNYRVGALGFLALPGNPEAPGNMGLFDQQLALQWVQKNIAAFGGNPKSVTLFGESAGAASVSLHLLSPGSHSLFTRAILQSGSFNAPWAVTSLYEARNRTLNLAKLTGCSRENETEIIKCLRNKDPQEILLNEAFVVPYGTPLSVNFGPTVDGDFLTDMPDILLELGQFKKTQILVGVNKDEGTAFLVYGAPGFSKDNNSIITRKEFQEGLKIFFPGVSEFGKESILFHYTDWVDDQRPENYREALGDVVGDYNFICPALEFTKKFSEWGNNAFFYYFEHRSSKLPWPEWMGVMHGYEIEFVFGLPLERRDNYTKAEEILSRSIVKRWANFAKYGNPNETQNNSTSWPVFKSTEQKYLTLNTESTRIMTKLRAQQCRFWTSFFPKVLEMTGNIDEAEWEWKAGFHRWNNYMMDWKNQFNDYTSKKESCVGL
# Sequence of AChE (P22303 32-614): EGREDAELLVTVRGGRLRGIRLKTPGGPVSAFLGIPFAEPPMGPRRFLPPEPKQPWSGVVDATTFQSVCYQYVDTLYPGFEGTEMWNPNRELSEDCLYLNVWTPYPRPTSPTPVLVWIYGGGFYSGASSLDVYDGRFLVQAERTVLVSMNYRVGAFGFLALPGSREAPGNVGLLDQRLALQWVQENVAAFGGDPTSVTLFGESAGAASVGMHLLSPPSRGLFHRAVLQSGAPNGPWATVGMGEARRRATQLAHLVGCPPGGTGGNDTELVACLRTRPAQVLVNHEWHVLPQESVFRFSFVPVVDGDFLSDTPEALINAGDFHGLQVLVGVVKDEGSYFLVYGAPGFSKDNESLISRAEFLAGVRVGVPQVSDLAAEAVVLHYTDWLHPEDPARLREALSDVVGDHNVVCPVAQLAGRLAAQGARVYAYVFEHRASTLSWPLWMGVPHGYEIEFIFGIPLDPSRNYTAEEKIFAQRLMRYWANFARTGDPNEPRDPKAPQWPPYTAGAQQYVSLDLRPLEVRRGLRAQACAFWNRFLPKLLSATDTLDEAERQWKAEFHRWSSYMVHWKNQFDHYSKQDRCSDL
compound,measurement,setting,value
COc1cc2c(cc1OC)C(=O)C(=Cc1ccc(NC(=O)CN3CCN(CCN(C)C)CC3)cc1)C2 [D24],human BChE inhibition (%),[1]; 10^–3 M,97.932 ± 2.016%
same,human BChE inhibition (%),[1]; 10^–4 M,49.401 ± 0.559%
same,IC50,[2],46.9 ± 1.9 nM
same,human AChE inhibition (%),[2]; 10^–3 M,93.224 ± 1.719%
same,human AChE inhibition (%),[2]; 10^–4 M,90.486 ± 1.298%
same,human AChE inhibition (%),[2]; 10^–5 M,82.415 ± 1.102%
same,human AChE inhibition (%),[2]; 10^–6 M,72.846 ± 1.267%
same,human AChE inhibition (%),[2]; 10^–7 M,63.963 ± 1.088%
same,human AChE inhibition (%),[2]; 10^–8 M,41.281 ± 0.623%
same,human AChE inhibition (%),[2]; 10^–9 M,18.773 ± 0.411%
same,human MAO-B inhibition (%),[3]; 10^–3 M,75.628 ± 1.426%
same,human MAO-B inhibition (%),[3]; 10^–4 M,46.324 ± 0.521%
same,human MAO-A inhibition (%),[4]; 10^–3 M,64.076 ± 0.323%
same,human MAO-A inhibition (%),[4]; 10^–4 M,25.257 ± 0.621%
same,IC50,[5],18640 ± 119 nM
COc1ccc2c(c1)C/C(=C\c1ccc(NC(=O)CN(C)CCCN(C)C)cc1)C2=O [D37],inhibition at 100 µM,[6],> 50%
same,type of inhibition of MAO-B,[7]; Lineweaver–Burk plots,noncompetitive inhibition
same,Ki,"[7]; secondary plot of Lineweaver–Burk data, read-out: steady-state inhibition constant (Ki), MAO-B",29.7 nM
same,IC50,[1],83.9 ± 3.4 nM
same,inhibition at 1000 µM,[1]; 10^–3 M,94.2 ± 1.39%
same,inhibition at 100 µM,[1]; 10^–4 M,89.7 ± 1.25%
same,inhibition at 10 µM,[1]; 10^–5 M,82.7 ± 1.01%
same,inhibition at 1 µM,[1]; 10^–6 M,71.4 ± 1.35%
same,inhibition at 0.1 µM,[1]; 10^–7 M,59.3 ± 0.754%
same,inhibition at 0.01 µM,[1]; 10^–8 M,32.5 ± 0.355%
same,inhibition at 0.001 µM,[1]; 10^–9 M,18.5 ± 0.471%
same,IC50,[2],48.2 ± 1.7 nM
same,inhibition at 1000 µM,[2]; 10^–3 M,92.5 ± 1.57%
same,inhibition at 100 µM,[2]; 10^–4 M,87.6 ± 1.68%
same,inhibition at 10 µM,[2]; 10^–5 M,83.5 ± 1.23%
same,inhibition at 1 µM,[2]; 10^–6 M,75.1 ± 1.08%
same,inhibition at 0.1 µM,[2]; 10^–7 M,61.5 ± 0.965%
same,inhibition at 0.01 µM,[2]; 10^–8 M,39.5 ± 0.489%
same,inhibition at 0.001 µM,[2]; 10^–9 M,19.7 ± 0.508%
same,IC50,[3],31.2 ± 0.8 nM
same,inhibition at 1000 µM,[3]; 10^–3 M,98.4 ± 1.63%
same,inhibition at 100 µM,[3]; 10^–4 M,91.6 ± 1.24%
same,inhibition at 10 µM,[3]; 10^–5 M,85.5 ± 1.12%
same,inhibition at 1 µM,[3]; 10^–6 M,78.3 ± 1.07%
same,inhibition at 0.1 µM,[3]; 10^–7 M,72.2 ± 1.1%
same,inhibition at 0.01 µM,[3]; 10^–8 M,40.1 ± 0.561%
same,inhibition at 0.001 µM,[3]; 10^–9 M,18.2 ± 0.418%
same,inhibition at 1000 µM,[4]; 10^–3 M,96.51 ± 0.736%
same,inhibition at 100 µM,[4]; 10^–4 M,37.8 ± 0.96%
same,IC50,[8],179 ± 7 nM
same,IC50,[9],2290 ± 136 nM
